Values quoted from earlier work as cited in patent publication US20240299291A1, “OPHTHALMIC PREPARATION ADMINISTERED BY EYE DROPS AND USED FOR PREVENTING AND TREATING DRY MACULAR DEGENERATION AND RETINAL LIGHT DAMAGE” (CHENGDU RUIMU BIOPHARMACEUTICALS CO., LTD., priority 2021, published 2024).

Columns and labels:
[1] = test system: retinal light damage; details: injection into the vitreous cavity of mice, up to 500 mg/kg/day, 7 days, before light damage
[2] = test system: AMD; open-angle glaucoma
[3] = test system: age-related macular degeneration (AMD); details: oral metformin
[4] = test system: AMPK (adenosine mono-phosphate activated protein kinase); details: mice

CN(C)C(=N)N=C(N)N [metformin]
Prevention of light damage [1]: almost completely prevent the light damage | Reduction of the incidence of open-angle glaucoma versus patients who did not take metformin ([2]; high-dose group (>1110 g metformin for 2 years)): 25% | Effect on the occurrence or development of AMD ([2]; oral metformin): may have therapeutic effect on the occurrence or development of AMD | Risk of AMD in patients with type 2 diabetes versus patients who did not take metformin [3]: significantly lower | AMPK activation in the retina of eyes [4]: locally activates AMPK
